The text below walks through data of patent publication US20230212202A1, “TREATMENT OF MGMT DEFICIENT CANCER WITH 2-FLUOROETHYL-SUBSTITUTED NITROSOUREAS AND OTHER COMPOUNDS” (YALE UNIVERSITY, priority 2021, published 2023).

In data set [1] the test system is LN229 human brain glioblastoma cells MGMT- MMR-. Description: Anticancer activity towards LN229 cells (Example 15). In kind it is cell-based. As to conditions: read-out: MGMT -MMR-Activity. As to the method:
(§1) LN229 quad cells were maintained in Dulbecco’s Modified Eagle Medium (DMEM) supplemented with 10% fetal bovine serum. Cells were plated into sterile black with glass bottom 384-well plates (Cellvis) at a concentration of 1,000 cells/well (20 µL total volume) using a MultiDrop (Thermo Fisher). Then, assay plates were centrifuged at 300 rpm for 2 seconds and incubated overnight in a 37° C. 5% CO2 incubator. Compounds were prepared as 100 mM stocks in DMSO and stored protected from light at -20′C until use. Prior to compound addition, the stock solutions of compound were diluted two-fold serially in DMSO from 100 mM down to 0.05 mM in a 384-well Source plate. Vehicle control wells containing DMSO and positive control wells containing 10 mM bortezomib were also added to the Source plate. An aliquot in the amount of 40 nL of compound stock solution or DMSO vehicle was transferred from the source plate to the cell assay plate using an Echo Acoustic dispense (Beckman). Three replicate dilution curves of each compound were run on each assay plate. An aliquot in the amount of 120 nL of a 10 mM bortezomib solution was transferred to the positive control wells resulting in a final concentration of 60 µM. The final concentration of compounds ranged from 200 µM to 0.1 µM (12-point, 2-fold dilution dose response curve), and the final DMSO concentration was 0.2%.
(§2) Assay plates were centrifuged at 500 rpm for 2 seconds and incubated for 120 hours at 37° C. in a humidified 5% CO2 incubator. Following incubation, cells were fixed with 4% paraformaldehyde and stained with DAPI for nuclei visualization. The images were acquired on the InCell 2200 high content imager (GE, now […]), and quantified using InCell Analyzer image analysis software. Z prime factor, signal-to-background and coefficient of variation were calculated for each assays plate using mean and standard deviation values of the negative (vehicle) and positive (bortezomib) control wells to ensure assay robustness. Raw cell count data for test compounds was normalized to percent viability relative to the DMSO vehicle control. Data was plotted in GraphPad Prism using a variable slope 4-parameter fit.

Data set [2] relates to LN229 human brain glioblastoma cells MGMT+ MMR+. The data set is described as above. In kind it is cell-based. As to conditions: read-out: MGMT+ MMR+ Activity. On the procedure: as §1, §2
Data set [3] has as its system LN229 human brain glioblastoma cells MGMT+ MMR-. The description is as above. In kind it is cell-based. Particulars: read-out: MGMT+ MMR -Activity. As to the method: as §1, §2
In data set [4] the test system is LN229 human brain glioblastoma cells MGMT- MMR+. Described as above. The data set is classed as cell-based. As to conditions: read-out: MGMT -MMR + Activity. As to the method:
as §1, §2

In data set [5] the test system is LN229 MGMT-/MMR- cells. Kind of data set: Short-term cell viability assay. The data set is classed as cell-based, human. Particulars: LN229 MGMT-/MMR- cells.
Data set [6] deals with LN229 MGMT+/-, MMR+/- cells. Kind of data set: Short-term cell viability assay, four isogenic LN229 glioblastoma cell lines. In kind it is cell-based, human.
The conditions of data set [7]: 37° C., pH 7.4; cited from earlier work.
Data set [8] deals with LN229 MGMT+/-, MMR+/- cells. Kind of data set: Clonogenic survival assay. The data set is classed as cell-based, human. As to the method: Clonogenic Cell Survival Assay. Cells were trypsinized, washed, counted, and diluted in a medium containing various concentrations of drug. They were then immediately seeded in six-well plates in triplicate at three-fold dilutions, ranging from 9000 to 37 cells per well. Depending on colony size, these plates were kept in the incubator for 10 to 14 days. After incubation, colonies were washed in phosphate-buffered saline (PBS), stained with crystal violet, counted, and quantified.

The subject of a further data set is LN229 MGMT-/MMR+ cells. Kind of data set: IR alkaline comet assay. In kind it is cell-based, human.
Data set [9] has as its system PD20 cells, FANCD2-/- or +FANCD2. Kind of data set: Short-term viability assay. In kind it is cell-based, human. Particulars: PD20 FANCD2-/- vs +FANCD2.
The test system of data set [10] is PEO4 (BRCA2+) and PEO1 (BRCA2-/-) cells. Description: Short-term viability assay with or without O6BG. The data set is classed as cell-based, human. As to conditions: for therapeutic index (TI): PEO1/4 model; for sensitivity of BRCA2-/- cells: PEO1/PEO4, ±O6BG.
In data set [11] the test system is DLD1 BRCA2+/- and BRCA2-/- cells. Description: Short-term viability assay with or without O6BG. The data set is classed as cell-based, human. Particulars: for sensitivity of BRCA2-/- cells: DLD1, ±O6BG; for therapeutic index (TI), ratio of IC50 values in MGMT+/BRCA2+ cells compared to MGMT-/BRCA2- cells: DLD1 isogenic model.
The test system of data set [12] is linearized pUC19 plasmid DNA. Kind of data set: Melting temperature assay. In kind it is biochemical. Particulars: 100 or 500 µM, 3 h.
For data set [13], the system named is LN229 MGMT-/MMR- cells. Description: IR alkaline comet assay. The data set is classed as cell-based, human. As to conditions: 200 µM, 2-24 h.
Data set [14] concerns DLD1 MSH6-deficient cells. Description: Short-term viability assay with or without O6BG. In kind it is cell-based, human. As to conditions: with or without O6BG-induced MGMT depletion. The source says: (§3) Short-term Cell Viability Assay.
Data set [15] concerns HCT116 MLH1-/- cells or HCT116 +Chr3 cells. Description: Short-term viability assay with or without O6BG. The data set is classed as cell-based, human.
From the text: as §3

Data set [16] deals with LN229 MGMT-/MMR- flank tumors. Description: Xenograft flank tumor model. The data set is classed as in vivo, mouse. Particulars: 5 mg/kg MWF × 3 weeks.
[17] abbreviates: Homo sapiens, LN-229, 120 hours.

Each structure is given as a SMILES string. pIC50: −log10 of the molar value. Where “and” joins values, the source holds several entries; their conditions need not be identical. Equal values may be shown once. Read-outs that look alike come from different tables or passages of the source.

Consider `O=NN(CCF)C(=O)NCCCl`, for which the pIC50 was more than 4.30 in data set [1] (Homo sapiens, LN-229, 120 h); less than 4.05 in [2] (Homo sapiens, LN-229, 120 h); less than 4.05 in [3] (Homo sapiens, LN-229, 120 h); 4.05 to 4.30 in data set [4] (Homo sapiens, LN-229, 120 h).
For the compound `O=NN(CCF)C(=O)NC1CCCCC1`, the pIC50 in [1] (setting [17]) is more than 4.30; in data set [2] (setting [17]), less than 4.05; in data set [3] (setting [17]) it was 4.05 to 4.30; in data set [4] (setting [17]), more than 4.30.
Turning to `CCOP(=O)(OCC)C(C)NC(=O)N(CCF)N=O` (centres unmarked), the pIC50 in data set [1] (120 hours) is more than 4.30; in data set [2] (120 hours) it was less than 4.05; in [3] (120 hours), less than 4.05; in [4] (120 hours) it was less than 4.05.
Regarding `Cc1ncc(CNC(=O)N(CCF)N=O)c(N)n1`, the pIC50 in [1] (Homo sapiens, LN-229, 120 h) was more than 4.30; in data set [2] (setting [17]) it was less than 4.05; in [3] (setting [17]), less than 4.05; in [4] (setting [17]), less than 4.05.
For `CC(F)CN/N=N/c1[nH]cnc1C(N)=O` (centres unmarked) [Compound 10], the “potency in MGMT-/MMR- cells” value with LN229 MGMT-/MMR- cells [5] is reported as “reduced potency”.
Regarding `NC(=O)c1nc[nH]c1/N=N/NCCCF` [Compound 11], the “activity in the four LN229 cell lines” value in [6] (MGMT+/-, MMR+/-) is reported as “low activity in all four cell lines”.
`Nc1nc(OCCF)c2ncn([C@@H]3O[C@H](CO)[C@@H](O)[C@H]3O)c2n1` [Compound S1, O^6-(2-fluoroethyl)guanosine]: the half-life of hydrolysis in [7] is 18.5 h and ~ 18.5 h.
Take `Nc1nc(OCCCl)c2ncn([C@@H]3O[C@H](CO)[C@@H](O)[C@H]3O)c2n1` [Compound S4, O^6-(2-chloroethyl)guanosine]: the half-life of hydrolysis in [7] is given as ~ 18 min.
With `O=NN(CCCl)C(=O)NC1CCCCC1` [Lomustine, lomustine, reference compound], the “clonogenic survival, MGMT+ cells” value in data set [8] (LN229 MGMT+ cells) is “cytotoxic to MGMT+ cells”. In addition, the “clonogenic survival, MGMT- cells” value in [8] (LN229 MGMT- cells, MMR+/-) is “effective in MMR- cells”.
`CO[C@@]12[C@H](COC(N)=O)C3=C(C(=O)C(C)=C(N)C3=O)N1C[C@@H]1N[C@@H]12` [MMC, Mitomycin C]: the “IR-induced comet tail (ICL detection)” value in the data set on LN229 MGMT-/MMR+ cells (0.1 µM, 24 h) is “partial reduction in the IR-induced comet tail”. Moreover, the “IR-induced comet tail (ICL detection)” value in the data set on LN229 MGMT-/MMR+ cells (50 µM, 2 h) is “completely abolished the IR-induced comet tail”. Further, the “comet tailing in the absence of IR” value in the data set on LN229 MGMT-/MMR+ cells (TMZ, KL-50 200 µM, MMC 0.1 or 50 µM) is “did not”. The “sensitivity of FANCD2-deficient cells” value in data set [9] was “hypersensitivity to crosslinking agents in FANCD2-/-cells”. In addition, in data set [10], the “therapeutic index (TI)” value stood at 7 fold and the “sensitivity of BRCA2-/- cells” value was “hypersensitivity of PEO4 BRCA2-/-cells to crosslinking agents independent of MGMT depletion”. Further, in data set [11], the “sensitivity of BRCA2-/- cells” value is on record as “hypersensitivity of DLD1 BRCA2-/- cells to crosslinking agents independent of MGMT depletion” and the “therapeutic index (TI), ratio of IC50 values in MGMT+/BRCA2+ cells compared to MGMT-/BRCA2- cells” value worked out at 26 fold.
As for `COS(C)(=O)=O` [MMS, Methylmethane sulfonate, reference compound], the DNA melting temperature entry in data set [12] was “comparable changes in measured DNA melting temperature”.
Regarding `NC(=O)c1ncn2c(=O)n(CCCl)nnc12` [MTZ, mitozolomide, reference compound], the “DNA damage in unirradiated samples, time course” value with LN229 MGMT-/MMR- cells [13] (0 Gy) is reported as “maximal damage at 2 h”. Moreover, in the data set on LN229 MGMT-/MMR- cells [13] (10 Gy), the “DNA mobility after IR, time course” value is “reduced DNA mobility within 2 h”. The “selectivity for MGMT-deficient cells” value in data set [6] (LN229, listed as 12a) was ~ 7 fold.
Regarding `Cn1nnc2c(C(N)=O)ncn2c1=O` [TMZ, temozolomide, reference compound], the pIC50 with LN229 MGMT-/MMR- cells [5] (Homo sapiens, LN-229, read-out: IC50) is 3.08. Also, the “activity in DLD1 cells” value in [14] is “inactive”. Moreover, the “activity in HCT116 cells” value in [15] is “inactive”. Also, the tumor growth entry in [16] (P.O.) was “no efficacy”. Further, in [16] (Kaplan-Meier), the “median OS” value is listed as 10 weeks.
On to `N.N.[Cl][Pt][Cl]` [cisplatin], for which the “sensitivity of FANCD2-deficient cells” value in [9] is “hypersensitivity to crosslinking agents in FANCD2-/-cells”. Also, in data set [10], the “therapeutic index (TI)” value came to 13 fold and the “sensitivity of BRCA2-/- cells” value is on record as “hypersensitivity of PEO4 BRCA2-/-cells to crosslinking agents independent of MGMT depletion”. In data set [11], the “sensitivity of BRCA2-/- cells” value is recorded as “hypersensitivity of DLD1 BRCA2-/- cells to crosslinking agents independent of MGMT depletion” and the “therapeutic index (TI), ratio of IC50 values in MGMT+/BRCA2+ cells compared to MGMT-/BRCA2- cells” value is recorded as 42 fold.
